{"source": "patent US10077237B2", "about": "(Sanofi, priority 2013, dated 2018)", "target": "T1, recombinant human AMPK complex, containing α2β1γ2 (Homo sapiens, UniProt P54646+Q9Y478)", "T1 construct": "hsAMPKα2-552-His, hsAMPKβ1-2-270 and hsAMPKγ-2-569 respectively; hsAMPKβ1-2-270; hsAMPKγ-2-569; His (C); made in house; host or cells: Spodoptera frugiperda Sf21 (baculovirus)", "T1 sequence (P54646 2-552)": "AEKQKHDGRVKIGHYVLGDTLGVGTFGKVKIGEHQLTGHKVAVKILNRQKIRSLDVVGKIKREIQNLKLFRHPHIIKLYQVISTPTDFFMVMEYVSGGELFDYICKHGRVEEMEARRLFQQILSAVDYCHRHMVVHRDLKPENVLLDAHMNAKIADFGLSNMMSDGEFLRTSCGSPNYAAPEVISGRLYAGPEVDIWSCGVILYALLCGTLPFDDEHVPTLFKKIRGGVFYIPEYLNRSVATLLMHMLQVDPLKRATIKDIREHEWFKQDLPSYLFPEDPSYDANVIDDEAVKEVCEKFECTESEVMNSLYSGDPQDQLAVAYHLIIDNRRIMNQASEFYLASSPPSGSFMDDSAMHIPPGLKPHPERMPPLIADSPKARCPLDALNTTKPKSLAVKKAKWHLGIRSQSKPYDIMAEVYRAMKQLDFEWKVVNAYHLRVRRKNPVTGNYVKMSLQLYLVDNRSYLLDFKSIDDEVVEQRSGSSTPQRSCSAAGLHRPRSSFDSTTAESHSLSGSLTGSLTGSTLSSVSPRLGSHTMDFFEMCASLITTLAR", "T1 sequence (Q9Y478 2-270)": "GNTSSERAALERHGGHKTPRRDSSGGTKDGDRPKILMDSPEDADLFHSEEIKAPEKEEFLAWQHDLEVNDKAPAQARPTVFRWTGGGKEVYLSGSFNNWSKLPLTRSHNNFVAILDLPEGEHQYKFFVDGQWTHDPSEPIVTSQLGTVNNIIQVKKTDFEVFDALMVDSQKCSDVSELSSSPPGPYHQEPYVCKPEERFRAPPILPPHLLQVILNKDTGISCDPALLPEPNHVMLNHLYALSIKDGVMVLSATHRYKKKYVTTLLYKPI", "T1 sequence (Q9UGJ0 2-569 partner limits assumed)": "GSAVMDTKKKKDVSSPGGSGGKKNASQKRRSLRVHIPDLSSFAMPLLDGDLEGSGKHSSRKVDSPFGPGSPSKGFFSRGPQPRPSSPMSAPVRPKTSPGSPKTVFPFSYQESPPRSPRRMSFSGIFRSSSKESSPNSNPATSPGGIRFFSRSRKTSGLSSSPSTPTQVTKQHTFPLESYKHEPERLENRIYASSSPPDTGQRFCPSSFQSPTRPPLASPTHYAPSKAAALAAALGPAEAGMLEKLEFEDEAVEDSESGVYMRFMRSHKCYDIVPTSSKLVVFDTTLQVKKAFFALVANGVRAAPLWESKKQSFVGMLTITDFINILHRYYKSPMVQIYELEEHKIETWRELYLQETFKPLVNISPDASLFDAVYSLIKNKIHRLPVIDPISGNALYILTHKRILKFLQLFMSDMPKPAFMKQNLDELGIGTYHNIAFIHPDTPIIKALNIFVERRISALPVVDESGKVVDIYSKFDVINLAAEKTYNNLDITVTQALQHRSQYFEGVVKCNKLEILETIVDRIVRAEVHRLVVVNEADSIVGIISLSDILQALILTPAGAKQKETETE", "assay": "AMPK in vitro activation assay (HTRF)", "assay_type": "biochemical", "details": "for EC50: HTRF, recombinant human α2β1γ2 AMPK, 200 μM ATP, biotinylated ACC-CREBp peptide, repeat determinations on separate lines; for Emax: potentiation of AMPK activity as percent over the basal signal (without compound)", "protocol": "The recombinant human AMPK complex, containing α2β1γ2 was obtained from baculovirus expression system and generated by cotransfection in Spodoptera frugiperda 21 (Sf21). […] were produced in serum free medium (SF900 II, Invitrogen) for 82 hours after a triple infection at a multiplicity of infection (M.O.I.) of 0.05, 0.06 and 0.045 for hsAMPKα2-552-His, hsAMPKβ1-2-270 and hsAMPKγ-2-569 respectively. Cells were harvested by centrifugation at 1,000×g for 10 minutes at 4° C. and stored at −80° C. The insect cell pellet from 8 liters of culture was resuspended and homogenized in 580 ml of lysis buffer (20 mM Hepes pH 7.5, 150 mM NaCl, 10 mM imidazole, 50 mM NaF, 10% Glycerol and supplemented with EDTA free proteases inhibitor cocktail Roche). The AMPK complex was partially purified using an affinity chromatography under a Ni-NTA Agarose column equilibrated in the lysis buffer and eluted with a gradient (0 to 400 mM) of Imidazol.\nA homogeneous time-resolved fluorescence (HTRF) assay was used (Li et al, Anal. Biochem. (2003) 321, 151-156) to identify compounds with stimulating activity for the recombinant human AMPK. Enzyme reaction was performed into a 96-well microtiter plate. First, 20 μL of test compounds in 0.5% DMSO were dispensed followed by 10 μL of protein in 50 mM HEPES buffer at pH 7.0, 100 mM NaCl, 5 mM MgCl2, 0.01% BSA, 0.8 mM DTT. After, 30 min incubation at room temperature, the reaction was initiated by the addition of 10 μL of a solution containing 200 μM of ATP as donor substrate, 2 μM or 0.08 μM of biotinylated ACC-CREBp peptide (PolyPeptide) as acceptor. Plates were then incubated 45 min at 37° C. The reaction was terminated by the addition of 40 μl detection mixture containing Eu^3+ cryptate-conjugated anti-pS^133-CREB antibody and streptavidine-XL665 (CisBio). Plates were further incubated for 2 h30 at room temperature. The fluorescence signal was measured using an Envision multireader (Perkin Elmer). The non-specific signal was obtained without substrates. Potentiation of AMPK activity was expressed as a percent over the basal signal (without compound) from which an EC50 value was determined.\nThe EC50 of a graded dose response curve represents the concentration of a compound where 50% of its maximal effect is observed.", "note": "Where “and” joins values, the source holds several entries; their conditions need not be identical. Identical values can stand only once. Counter-ions that a name gives are not always drawn."}
{"smiles": "COc1cc(C(O)=C2C(=O)Nc3cc(Cl)c(-c4ccc(C(O)CO)cc4)cc32)on1", "note": "(centres unmarked) [Compound 122, 6-chloro-5-[4-(1,2-dihydroxyethyl)phenyl]-3-[hydroxy-(3-methoxyisoxazol-5-yl)methylene]indolin-2-one]", "values": [{"measurement": "EC50", "value": 7, "unit": "nM"}, {"measurement": "Emax", "value": 172, "unit": "%"}]}
{"smiles": "COc1cc(C(O)=C2C(=O)Nc3cc(Cl)c(-c4ccc(OCCCO)cc4)cc32)on1", "note": "[Compound 129, 6-chloro-3-[hydroxy-(3-methoxyisoxazol-5-yl)methylene]-5-[4-(3-hydroxypropoxy)phenyl]indolin-2-one]", "values": [{"measurement": "EC50", "value": "20 nM and 10 nM"}]}
{"smiles": "COc1cc(C(O)=C2C(=O)Nc3cc(Cl)c(-c4ccc(C5(O)CCOCC5)cc4)cc32)on1", "note": "[Compound 89, 6-chloro-3-[hydroxy-(3-methoxyisoxazol-5-yl)methylene]-5-[4-(4-hydroxytetrahydropyran-4-yl)phenyl]indolin-2-one]", "values": [{"measurement": "EC50", "value": 7, "unit": "nM"}, {"measurement": "Emax", "value": 203, "unit": "%"}]}
{"smiles": "O=C1Nc2cc(F)c(-c3ccc(C4(CO)CC4)cc3)cc2C1=C(O)c1cc(C2CC2)no1", "note": "[Compound 119, 3-[(3-cyclopropylisoxazol-5-yl)hydroxy-methylene]6-fluoro-5-[4-[1-(hydroxymethyl)cyclopropyl]phenyl]indolin-2-one]", "values": [{"measurement": "EC50", "value": 0.6, "unit": "nM"}, {"measurement": "Emax", "value": 133, "unit": "%"}]}
{"smiles": "COc1ccc(-c2cc3c(cc2Cl)NC(=O)C3=C(O)c2cc(C)no2)cc1F", "note": "[Compound 55, 6-Chloro-5-(3-fluoro-4-methoxy-phenyl)-3-[1-hydroxy-1-(3-methyl-isoxazol-5-yl)-methylidene]-1,3-dihydro-indol-2-one]", "values": [{"measurement": "EC50", "value": 430, "unit": "nM"}, {"measurement": "Emax", "value": 174, "unit": "%"}]}
{"smiles": "Cc1nc(C)c(C(O)=C2C(=O)Nc3cc(Cl)c(-c4ccc(N5CCOCC5)cc4)cc32)s1", "note": "[Compound 15, 6-Chloro-3-[1-(2,4-dimethyl-thiazol-5-yl)-1-hydroxy-methylidene]-5-(4-morpholin-4-yl-phenyl)-1,3-dihydro-indol-2-one]", "values": [{"measurement": "EC50", "value": 27, "unit": "nM"}, {"measurement": "Emax", "value": 257, "unit": "%"}]}
{"smiles": "O=C1Nc2cc(Cl)c(-c3ccc(C4(CO)CC4)cc3)cc2C1=C(O)c1ccc(F)c(F)c1", "note": "[Compound 143, 6-chloro-3-[(3,4-difluorophenyl)hydroxy-methylene]-5-[4-[1-(hydroxymethyl)cyclopropyl]phenyl]indolin-2-one]", "values": [{"measurement": "EC50", "value": 3, "unit": "nM"}, {"measurement": "Emax", "value": 230, "unit": "%"}]}
{"smiles": "COCCCOc1ccc(-c2cc3c(cc2Cl)NC(=O)C3=C(O)c2cc(OC)no2)cc1", "note": "[Compound 131, 6-chloro-3-[hydroxy-(3-methoxyisoxazol-5-yl)methylene]-5-[4-(3-methoxypropoxy)phenyl]indolin-2-one]", "values": [{"measurement": "EC50", "value": "33 nM and 86 nM"}]}
{"smiles": "O=C1Nc2cc(Cl)c(-c3ccc(-c4ccccc4)cc3)cc2C1=C(O)c1ccccc1", "note": "[Compound 7, 5-Biphenyl-4-yl-6-chloro-3-[1-hydroxy-1-phenyl-methylidene]-1,3-dihydro-indol-2-one]", "values": [{"measurement": "EC50", "value": 1400, "unit": "nM"}, {"measurement": "Emax", "value": 57, "unit": "%"}]}
{"smiles": "COc1cc(F)c(C(O)=C2C(=O)Nc3cc(Cl)c(-c4ccc(N5CCOCC5)cc4)cc32)cc1F", "note": "[Compound 108, 6-chloro-3-[(2,5-difluoro-4-methoxy-phenyl)hydroxy-methylene]-5-(4-morpholinophenyl)indolin-2-one]", "values": [{"measurement": "EC50", "value": 6, "unit": "nM"}, {"measurement": "Emax", "value": 141, "unit": "%"}]}
{"smiles": "Cc1cc(C(O)=C2C(=O)Nc3cc(Cl)c(-c4ccc(C5(CO)CC5)cc4)cc32)on1", "note": "[Compound 6, 6-Chloro-5-[4-(1-hydroxymethyl-cyclopropyl)-phenyl]-3-[1-hydroxy-1-(3-methyl-isoxazol-5-yl)-methylidene]-1,3-dihydro-indol-2-one]", "values": [{"measurement": "EC50", "value": 7, "unit": "nM"}, {"measurement": "Emax", "value": 186, "unit": "%"}]}
{"smiles": "O=C1Nc2cc(Cl)c(-c3ccc(N4CCOCC4)cc3)cc2C1=C(O)c1cc(C2CC2)no1", "note": "[Compound 87, 6-chloro-3-[(3-cyclopropylisoxazol-5-yl)hydroxy-methylene]-5-(4-morpholinophenyl)indolin-2-one]", "values": [{"measurement": "EC50", "value": "0.5 nM and 0.6 nM"}]}
{"smiles": "O=C1Nc2cc(Cl)c(-c3ccc(C4=CCOCC4)cc3)cc2C1=C(O)c1cccc(F)c1", "note": "[Compound 52, 6-Chloro-5-[4-(3,6-dihydro-2H-pyran-4-yl)-phenyl]-3-[1-(3-fluoro-phenyl)-1-hydroxy-methylidene]-1,3-dihydro-indol-2-one]", "values": [{"measurement": "EC50", "value": 120, "unit": "nM"}, {"measurement": "Emax", "value": 147, "unit": "%"}]}
{"smiles": "COc1cc(C(O)=C2C(=O)Nc3cc(Cl)c(-c4ccc(OC5CCOCC5)cc4)cc32)on1", "note": "[Compound 128, 6-chloro-3-[hydroxy-(3-methoxyisoxazol-5-yl)methylene]-5-(4-tetrahydropyran-4-yloxyphenyl)indolin-2-one]", "values": [{"measurement": "EC50", "value": 52, "unit": "nM"}, {"measurement": "Emax", "value": 288, "unit": "%"}]}
{"smiles": "Cc1cc(C(O)=C2C(=O)Nc3cc(C)c(-c4ccc(N5CCOCC5)cc4)cc32)on1", "note": "[Compound 31, 3-[1-Hydroxy-1-(3-methyl-isoxazol-5-yl)-methylidene]-6-methyl-5-(4-morpholin-4-yl-phenyl)-1,3-dihydro-indol-2-one]", "values": [{"measurement": "EC50", "value": 540, "unit": "nM"}, {"measurement": "Emax", "value": 147, "unit": "%"}]}
{"smiles": "CC(=O)NCCOc1ccc(-c2cc3c(cc2Cl)NC(=O)C3=C(O)c2cc(C)no2)cc1", "note": "[Compound 104, N-[2-[4-[6-chloro-3-[hydroxy-(3-methylisoxazol-5-yl)methylene]-2-oxo-indolin-5-yl]phenoxy]ethyl]acetamide]", "values": [{"measurement": "EC50", "value": 15, "unit": "nM"}, {"measurement": "Emax", "value": 107, "unit": "%"}]}
{"smiles": "O=C1Nc2cc(Cl)c(-c3ccc(N4CCOCC4)cc3)cc2C1=C(O)c1ccc(OC(F)(F)F)c(F)c1", "note": "[Compound 95, 6-chloro-3-[[3-fluoro-4-(trifluoromethoxy)phenyl]-hydroxy-methylene]-5-(4-morpholinophenyl)indolin-2-one]", "values": [{"measurement": "EC50", "value": 396, "unit": "nM"}, {"measurement": "Emax", "value": 159, "unit": "%"}]}
{"smiles": "O=C1Nc2cc(Cl)c(-c3ccc(C4(CO)CC4)cc3F)cc2C1=C(O)c1cc(C2CC2)no1", "note": "[Compound 113, 6-chloro-3-[(3-cyclopropylisoxazol-5-yl)hydroxy-methylene]-5-[2-fluoro-4-[1-(hydroxymethyl)cyclopropyl]phenyl]indolin-2-one]", "values": [{"measurement": "EC50", "value": 0.6, "unit": "nM"}, {"measurement": "Emax", "value": 126, "unit": "%"}]}
{"smiles": "COc1cccc(-c2ccc(-c3cc4c(cc3Cl)NC(=O)C4=C(O)c3cc(OCCN4CCOCC4)no3)cc2)c1O", "note": "[Compound 90, 6-chloro-5-[4-(2-hydroxy-3-methoxy-phenyl)phenyl]-3-[hydroxy-[3-(2-morpholinoethoxy)isoxazol-5-yl]methylene]indolin-2-one]", "values": [{"measurement": "EC50", "value": "0.1 nM and 0.2 nM"}]}
{"smiles": "COc1cc(C(O)=C2C(=O)Nc3cc(Cl)c(-c4ccc(C5CCNC5)cc4)cc32)on1", "note": "(centres unmarked) [Compound 134, 6-chloro-3-[hydroxy-(3-methoxyisoxazol-5-yl)methylene]-5-(4-pyrrolidin-3-ylphenyl)indolin-2-one hydrochloride]", "values": [{"measurement": "EC50", "value": 9, "unit": "nM"}, {"measurement": "Emax", "value": 394, "unit": "%"}]}
{"smiles": "COc1c(F)cc(C(O)=C2C(=O)Nc3cc(Cl)c(-c4ccc(N5CCOCC5)cc4)cc32)cc1Cl", "note": "[Compound 97, 6-chloro-3-[(3-chloro-5-fluoro-4-methoxy-phenyl)hydroxy-methylene]-5-(4-morpholinophenyl)indolin-2-one]", "values": [{"measurement": "EC50", "value": 41, "unit": "nM"}, {"measurement": "Emax", "value": 185, "unit": "%"}]}
{"smiles": "Cc1cc(C(O)=C2C(=O)Nc3cc(Cl)c(-c4ccc(C5CC5)cc4)cc32)on1", "note": "[Compound 22, 6-Chloro-5-(4-cyclopropyl-phenyl)-3-[1-hydroxy-1-(3-methyl-isoxazol-5-yl)-methylidene]-1,3-dihydro-indol-2-one]", "values": [{"measurement": "EC50", "value": 250, "unit": "nM"}, {"measurement": "Emax", "value": 147, "unit": "%"}]}
{"smiles": "COc1cc(C(O)=C2C(=O)Nc3cc(Cl)c(-c4ccc(N(C)C)cc4)cc32)on1", "note": "[Compound 127, 6-chloro-5-(4-dimethylaminophenyl)-3-[hydroxy-(3-methoxyisoxazol-5-yl)methylene]indolin-2-one]", "values": [{"measurement": "Emax", "value": 296, "unit": "%"}]}
{"smiles": "O=C1Nc2cc(Cl)c(-c3ccc(C4CC4)cc3)cc2C1=C(O)c1cccc(F)c1", "note": "[Compound 26, 6-Chloro-5-(4-cyclopropyl-phenyl)-3-[1-(3-fluoro-phenyl)-1-hydroxy-methylidene]-1,3-dihydro-indol-2-one]", "values": [{"measurement": "EC50", "value": 440, "unit": "nM"}, {"measurement": "Emax", "value": 153, "unit": "%"}]}
{"smiles": "CN(C)c1ccc(-c2cc3c(cc2Cl)NC(=O)C3=C(O)c2ccc(C(=O)O)cc2)cc1", "note": "[Compound 9, 4-{[6-Chloro-5-(4-dimethylamino-phenyl)-2-oxo-1,2-dihydro-indolylidene]-hydroxy-methyl}-benzoic acid]", "values": [{"measurement": "EC50", "value": "24 nM and 23 nM"}, {"measurement": "Emax", "value": 120, "unit": "%"}]}
{"smiles": "O=C1Nc2cc(Cl)c(-c3ccc(C4(CO)CC4)cc3)cc2C1=C(O)c1ccc(F)cc1F", "note": "[Compound 141, 6-chloro-3-[(2,4-difluorophenyl)hydroxy-methylene]-5-[4-[1-(hydroxymethyl)cyclopropyl]phenyl]indolin-2-one]", "values": [{"measurement": "EC50", "value": 2, "unit": "nM"}, {"measurement": "Emax", "value": 229, "unit": "%"}]}
